Data set [1] in a line: Particle size by Malvern Mastersizer S (volume distribution). In kind it is physicochemical. As for the experimental part: The particle size for desvenlafaxine succinate was measured using a Malvern Mastersizer S particle size analyzer with an MS1 Small Volume Sample Dispersion Unit stirred cell. A 300RF mm lens and a beam length of 2.4 mm were used. Samples for analysis were prepared by dispersing a weighed amount of desvenlafaxine succinate (approximately 0.1 g) in 20 mL of Lecithin Solution, previously prepared by dilution of 1.5 g of Soybean Lecithin to 200 mL of Isopar G. Mix gently until Lecithin dissolves (Lecithin solution). If it is necessary the solution can be sonicated. The suspension was delivered drop-wise to a background corrected measuring cell previously filled with dispersant (Isopar G) until the obscuration reached the desired level. Volume distributions were obtained for three times. Before and after the analysis, purge the sample and flush the MS1 unit with ethanol twice and with the dispersant at least three times. For characterization, the values of D10, D50 and D90 (by volume) were specifically listed, each one being the mean of the […] values available for each characterization parameter.

The nature of data set [2]: BET specific surface area (Micromeritics ASAP2010, N2 adsorption). The data set is classed as physicochemical. The conditions noted are these: N2 at 77.3 K. As for the experimental part: The BET (Brunauer, Emmett and Teller) specific surface area for desvenlafaxine succinate was measured using a Micromeritics ASAP2010 equipment. Samples for analysis were degassed at 30° C.-70° C. under vacuum for about two hours. The determination of the adsorption of N2 at 77.3° K was measured for relative pressures in the range of 0.05-0.3 for a weighed amount of desvenlafaxine succinate (i.e., approximately 0.5 g).

Where [3] appears, read: milled and sieved desvenlafaxine succinate.

On to `CN(C)CC(c1ccc(O)cc1)C1(O)CCCCC1` (centres unmarked) [desvenlafaxine succinate], for which, in data set [1] (setting [3]), the “D50 (v) particle size” value is recorded as “approximately 41 μm” and the “D90 (v) particle size” value is listed as “approximately 155 μm”. The “D10 (v) particle diameter less than” value in data set [1] (summary statement) is “approximately 4 μM”. The molecule also had a surface area in data set [2] of 0.8457±0.0039 m^2/g. In addition, the surface area entry in data set [2] (listed as Desvenlafaxine succinate) was “approximately 0.8457±0.0039 m^2/g”.

Source of the values: patent US20100121108A1, “PROCESS FOR SYNTHESIZING DESVENLAFAXINE FREE BASE AND SALTS OR SOLVATES THEREOF” (MEDICHEM, S.A., priority 2006, published 2010).
